Assay results: patent publication US12371432B2, “Haloallylamine compounds and application thereof” (TransThera Sciences (Nanjing), Inc., priority 2019, dated 2025)
pIC50: −log10 of the molar value. Where a name gives a salt, the structure may show the parent alone.

Columns and labels:
Assay type in all cases: biochemical
[1] = target: T1, rhAOC1 (Homo sapiens, UniProt P19801); experiment: Selectivity against rhAOC1 enzyme (Biological Example 1); conditions: Table 1; histamine substrate, Amplex Red/HRP
T1 construct: purchased R&D
T1 sequence (P19801 20-751): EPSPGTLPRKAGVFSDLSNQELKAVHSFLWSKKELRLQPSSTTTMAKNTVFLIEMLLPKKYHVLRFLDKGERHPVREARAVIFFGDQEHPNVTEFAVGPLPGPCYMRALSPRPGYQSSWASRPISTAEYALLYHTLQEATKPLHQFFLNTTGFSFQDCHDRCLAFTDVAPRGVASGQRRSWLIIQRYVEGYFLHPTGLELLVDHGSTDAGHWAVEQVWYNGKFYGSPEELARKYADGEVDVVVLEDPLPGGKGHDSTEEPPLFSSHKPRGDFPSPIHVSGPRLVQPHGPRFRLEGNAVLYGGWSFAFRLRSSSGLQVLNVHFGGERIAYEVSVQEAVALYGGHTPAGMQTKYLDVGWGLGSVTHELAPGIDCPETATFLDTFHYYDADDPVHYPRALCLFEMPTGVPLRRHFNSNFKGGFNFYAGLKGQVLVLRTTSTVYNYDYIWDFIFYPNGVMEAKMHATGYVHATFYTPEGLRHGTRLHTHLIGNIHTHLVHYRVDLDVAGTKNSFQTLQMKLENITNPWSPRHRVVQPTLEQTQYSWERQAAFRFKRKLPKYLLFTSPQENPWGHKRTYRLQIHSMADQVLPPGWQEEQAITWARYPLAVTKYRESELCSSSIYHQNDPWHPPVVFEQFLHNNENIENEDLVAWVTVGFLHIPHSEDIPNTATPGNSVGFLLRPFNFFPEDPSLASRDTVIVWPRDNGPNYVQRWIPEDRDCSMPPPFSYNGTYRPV
Experimental: 2. Selectivity of Compounds Against rhAOC1 Enzyme
(§1) (1) Instrument, Consumable and Reagent
Microplate reader (Perkin Elmer, Nivo 5S), black unclear-bottom 96-well plate (Corning) and rhAOC1 (R&D)
(§2) (2) Preparation of Concentration Gradient Compound Solutions
(§3) An appropriate amount of the compound to be tested was taken, dissolved in DMSO to 10 mM and then stored. Before the study, an appropriate amount of mother liquor of the 10 mM compound to be tested was taken and gradiently diluted 3-fold with DMSO, 10 concentration gradients in total. Each concentration gradient was then diluted 10-fold with 0.1 M of PBS.
(§4) (3) Preparation of Enzyme Solutions
An appropriate amount of rhAOC1 mother liquor with a concentration of 0.441 mg/mL was taken and diluted with an appropriate amount of 50 mM HEPES buffer solution to obtain enzyme solutions of 4× concentrations.
(§5) (4) Preparation of Substrate Mixtures of 2× Concentrations
An appropriate amount of histamine was weighed and dissolved with 50 mM of HEPES buffer solution to obtain 20 mM of histamine solution. The histamine solution was added with 2 mM of Amplex Red mother liquor and 500 U/mL of HRP mother liquor and diluted with 50 mM of HEPES buffer solution to obtain substrate mixtures of 2× concentrations.
10 μL compound solutions of different concentrations, 25 μL rhAOC1 enzyme solutions of 4× concentrations and 15 μL of 50 mM HEPES buffer solution were first added into a 96-well plate, shaken to be mixed uniformly and then incubated at 37° C. for 30 min. 50 μL substrate mixtures of 2× concentrations were then added into each well, and the microplate reader was immediately used to detect fluorescence intensity of each well with 580 nm (20 nm) exciting light and 620 nm (10 nm) emission light for 5 min each time, 30 min in total. […]
(§6) V: fluorescence change rate; Ft: fluorescence reading at time point t; F0: initial fluorescence reading; Time: duration t; Vcmpd: fluorescence change rate of tested compound; Vmax: Max hole fluorescence change rate. […]

[2] = target: T2, rhVAP-1 (Homo sapiens, UniProt Q16853); experiment: Inhibitory activity against rhVAP-1 enzyme (Biological Example 1); conditions: Table 1; benzylamine substrate, Amplex Red/HRP
T2 construct: purchased PeproTech
T2 sequence (Q16853 27-763 limits assumed): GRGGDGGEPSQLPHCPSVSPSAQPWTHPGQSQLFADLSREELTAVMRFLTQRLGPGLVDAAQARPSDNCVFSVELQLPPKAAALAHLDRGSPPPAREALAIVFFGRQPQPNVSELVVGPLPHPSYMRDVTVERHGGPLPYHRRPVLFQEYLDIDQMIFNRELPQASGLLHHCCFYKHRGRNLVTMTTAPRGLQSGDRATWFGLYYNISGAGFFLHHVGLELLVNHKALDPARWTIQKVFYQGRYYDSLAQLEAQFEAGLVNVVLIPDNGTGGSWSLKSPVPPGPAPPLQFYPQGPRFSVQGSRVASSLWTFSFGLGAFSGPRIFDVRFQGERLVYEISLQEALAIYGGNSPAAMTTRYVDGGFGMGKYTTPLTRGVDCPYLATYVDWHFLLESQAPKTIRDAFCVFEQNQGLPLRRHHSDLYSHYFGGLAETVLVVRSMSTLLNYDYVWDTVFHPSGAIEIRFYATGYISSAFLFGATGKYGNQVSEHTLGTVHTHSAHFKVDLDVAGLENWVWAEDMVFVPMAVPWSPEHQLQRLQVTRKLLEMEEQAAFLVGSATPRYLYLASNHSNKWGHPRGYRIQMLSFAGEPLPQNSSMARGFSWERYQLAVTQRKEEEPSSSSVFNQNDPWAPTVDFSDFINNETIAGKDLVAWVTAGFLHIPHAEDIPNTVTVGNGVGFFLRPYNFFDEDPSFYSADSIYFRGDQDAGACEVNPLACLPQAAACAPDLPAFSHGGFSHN
Experimental: (§7) 1. Inhibitory Activity of Compounds Against rhVAP-1 Enzyme
as §1
Multifunctional microplate reader (MD, FlexStation3), black unclear-bottom 96-well plate (Corning), and rhVAP-1 (PeproTech)
as §2
An appropriate amount of the compound to be tested was taken, dissolved in DMSO to 10 mM and then stored. Before the study, an appropriate amount of mother liquor of the 10 mM compound to be tested was diluted with DMSO, so that 1 mM solution was obtained. The solution was then gradiently diluted 3-fold with DMSO, 10 concentration gradients in total. PBS was then used to carry out 100-fold dilution, so that compound solutions of 10× series of concentrations were prepared.
as §4
(§8) An appropriate amount of protein diluent was added into rhVAP-1 powder, obtaining 1 mg/mL of mother liquor for storage. Before the study, PBS was used to carry out dilution to obtain enzyme solutions of 4× concentrations.
as §5
(§9) An appropriate amount of benzylamine was weighed and dissolved with PBS to obtain 200 mM of benzylamine solution. The benzylamine solution was added with 2 mM of Amplex Red mother liquor and 500 U/mL of HRP mother liquor and diluted with PBS to obtain substrate mixtures of 2× concentrations.
10 μL compound solutions of different concentrations, 25 μL rhVAP-1 enzyme solutions of 4× concentrations and 15 μL of PBS were first added into a 96-well plate, shaken to be mixed uniformly and then incubated at 37° C. for 30 min. 50 μL substrate mixtures of 2× concentrations were then added into each well, and the microplate reader was immediately used to detect fluorescence intensity of each well with 565 nm exciting light and 590 nm emission light for 5 min each time, 25 min in total. […]
as §6

[3] = target: T2, rhVAP-1; experiment: Inhibitory activity against rhVAP-1 enzyme (Biological Example 2); conditions: Table 2; benzylamine substrate, Amplex Red/HRP
Experimental: as §7, §1
Microplate reader (Perkin Elmer, Nivo 5S), black unclear-bottom 96-well plate (Corning) and rhVAP-1 (PeproTech)
as §2
as §3, with “100-fold” for “10-fold”
as §4, §8, §5, §9
10 μL compound solutions of different concentrations, 25 μL rhVAP-1 enzyme solutions of 4× concentrations and 15 μL of PBS were first added into a 96-well plate, shaken to be mixed uniformly and then incubated at 37° C. for 30 min. 50 μL substrate mixtures of 2× concentrations were then added into each well, and the microplate reader was immediately used to perform detection with 580 nm (20 nm) exciting light and 620 nm (10 nm) emission light for 5 min each time, 30 min in total. The inhibition rate was calculated according to the following formula: V (RFU/min)=(Ft (RFU)−F0 (RFU))/(time(min)) Inhibition rate (%)=100%−Vcmpd (RFU/min)/Vmax (RFU/min)×100%
V: fluorescence change rate; Ft: fluorescence reading at time point t; F0: initial fluorescence reading; Time: duration t; Vcmpd: fluorescence change rate of tested compound; Vmax: Max hole fluorescence change rate.
(6) Fitting of Dose-Response Curve
(§10) With the log value of concentration as the X axis and the percent inhibition rate as the Y axis, the log (inhibitor) vs. response-variable slope of analysis software GraphPad Prism 5 was used to fit a dose-response curve, thus obtaining the IC50 value of activity of each compound against the enzyme.

[4] = target: T3, MAO-A (Homo sapiens, UniProt P21397); experiment: Selectivity against MAO-A enzyme (MAO-Glo)
T3 construct: purchased Active Motif
T3 sequence (P21397 1-527): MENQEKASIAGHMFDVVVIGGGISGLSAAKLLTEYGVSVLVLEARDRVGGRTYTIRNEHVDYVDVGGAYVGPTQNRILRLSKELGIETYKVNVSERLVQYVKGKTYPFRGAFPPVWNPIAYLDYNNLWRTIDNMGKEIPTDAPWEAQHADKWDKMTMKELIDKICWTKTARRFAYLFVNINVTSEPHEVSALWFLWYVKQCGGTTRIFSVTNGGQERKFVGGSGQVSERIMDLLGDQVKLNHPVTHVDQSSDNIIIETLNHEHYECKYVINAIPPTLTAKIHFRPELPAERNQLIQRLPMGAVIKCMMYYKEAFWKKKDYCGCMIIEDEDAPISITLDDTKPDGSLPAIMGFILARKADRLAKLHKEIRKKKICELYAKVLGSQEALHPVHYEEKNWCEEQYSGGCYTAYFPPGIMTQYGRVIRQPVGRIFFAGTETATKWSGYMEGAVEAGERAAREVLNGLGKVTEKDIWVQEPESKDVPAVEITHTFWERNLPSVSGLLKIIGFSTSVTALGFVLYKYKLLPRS
Experimental: as §1
(§11) Microplate reader (Perkin Elmer, EnVision), 384-well plate (Perkin Elmer), centrifuge (Eppendorf), MAO-Glo™ (Promega), MAO-A (Active Motif) and MAO-B (Active Motif).
as §2
(§12) An appropriate amount of the compound to be tested was taken, dissolved in DMSO to 10 mM and then stored. The solution was then gradiently diluted 4-fold with DMSO, 6 concentration gradients in total.
as §4
(§13) MAO-A/B mother liquor was diluted with the experimental buffer for MAO-A/B to obtain enzyme solutions of 2× concentrations.
as §5
(§14) The mother liquor of MAO-A/B substrate mixture was diluted with the experimental buffer for MAO-A/B to obtain substrate mixtures of 2× concentrations.
(§15) 200 nL compound solutions or solvents of different concentrations and 10 μL MAO-A/B enzyme solutions of 2× concentrations were added into a 384-well plate, centrifuged at 1,000 rpm for 60 s, shaken to be mixed uniformly and then incubated at room temperature for 15 min. 10 μL substrate mixtures of 2× concentrations were then added into each well, and reaction was initiated. The 384-well plate was centrifuged at 1,000 rpm for 60 s, shaken for a uniform mixing and then incubated at room temperature for 60 min. 20 μL of test stop solution was added to stop reaction. Centrifugation was performed at 1,000 rpm for 60 s, and shaking was performed for uniform mixing. After 30 min of standing, the microplate reader was used to perform reading.
(§16) The inhibition rate was calculated according to the following formula: Inhibition rate (%)=(Signal_Max-Signal_sample)/(Signal_Max-Signal_min)×100 (6) Fitting of Dose-Response Curve
as §10

[5] = target: T4, MAO-B (Homo sapiens, UniProt P27338); experiment: Selectivity against MAO-B enzyme (MAO-Glo)
T4 construct: purchased Active Motif
T4 sequence (P27338 1-520): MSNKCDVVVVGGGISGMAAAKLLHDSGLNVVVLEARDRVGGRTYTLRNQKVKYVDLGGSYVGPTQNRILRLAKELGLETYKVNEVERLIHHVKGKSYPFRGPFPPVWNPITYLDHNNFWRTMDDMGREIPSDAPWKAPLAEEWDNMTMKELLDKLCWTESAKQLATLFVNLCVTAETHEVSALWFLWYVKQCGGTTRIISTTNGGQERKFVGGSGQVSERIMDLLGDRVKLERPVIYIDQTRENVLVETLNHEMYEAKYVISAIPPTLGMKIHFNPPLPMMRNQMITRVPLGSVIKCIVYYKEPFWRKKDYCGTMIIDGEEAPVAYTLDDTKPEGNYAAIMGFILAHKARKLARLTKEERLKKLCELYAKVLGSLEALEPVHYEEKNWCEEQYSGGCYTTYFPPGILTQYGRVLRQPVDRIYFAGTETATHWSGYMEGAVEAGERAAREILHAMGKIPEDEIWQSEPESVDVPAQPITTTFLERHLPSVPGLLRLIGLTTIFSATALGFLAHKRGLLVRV
Experimental: as §1, §11, §2, §12, §4, §13, §5, §14, §15, §16, §10

Compound	pIC50 [1]	pIC50 [2]	pIC50 [3]	pIC50 [4]	pIC50 [5]
NC/C(=C\F)Cn1ccc2cc(C(=O)N3CCOCC3)ccc21 [Compound C1, (E)-(1-(2-(aminomethyl)-3-fluoroallyl)-1H-indol-5-yl)(morpholino)methanone]	4.57	7.10			
NC/C(=C\F)Cn1ncc2c(=O)n(C3CC3)ccc21 [Compound A44 hydrochloride, (E)-1-(2-(aminomethyl)-3-fluoroallyl)-5-cyclopropyl-1,5-dihydro-4H-pyrazolo[4,3-c]pyridin-4-one]			7.89	4.11	4.05
CC(C)(C)CN1CCc2nn(C/C(=C/F)CN)cc2C1=O [Compound A37 hydrochloride, (E)-2-(2-(aminomethyl)-3-fluoroallyl)-5-neopentyl-2,5,6,7-tetrahydro-4H-pyrazolo[4,3-c]pyridin-4-one]			8.10	< 4.00	< 4.00
